From patent US9370183B2, “Use of ALS inhibitor herbicides for control of unwanted vegetation in ALS inhibitor herbicide tolerant Brassica, such as B. napus, plants” (Bayer Intellectual Property GmbH, priority 2011, dated 2016)
Where two headings read alike, the source gives them in different places.

Columns and labels:
[1] = test system: B. napus wild type variety SR002201; test: Greenhouse herbicide injury, visual scoring, wild type variety; type: in vivo, Brassica napus; details: spray at BBCH 12-13 with Mero 1 l/ha, visual scoring 14 days after application, 0%=no damage, 100%=all plants dead
Description: (§1) The individual components herbicide and surfactant with regard to type and application rate as stated in table 1 were added with stirring to a water application rate of 300 l/ha so that a homogeneous spray mixture was formed. The adjuvant Mero® (Bayer CropScience AG: active ingredient is 81% rapeseed oil methyl ester) was always added to the spray liquids with a use rate of one l/ha.
(§2) Seeds of B. napus were sown in a sandy loam soil and placed in a climate chamber in a greenhouse under good growth conditions (16 h light, temperature day 14° C., night: 8° C.). The plants (10 per experiment) were grown up to growth stage of BBCH 12 to BBCH 13. […] After the treatment, the plants were returned to the climate chamber.
(§3) Visual scoring was carried out using a percentage scale of 0%=no damage to 100%=all plants dead.

B. napus mutant FM 202 = type: in vivo, Brassica napus; details: spray at BBCH 12-13 with Mero 1 l/ha, visual scoring 14 days after application, 0%=no damage, 100%=all plants dead
Description: as §1, §2, §3

[2] = biological target: T1, A. thaliana A205V-mutant ALS (Arabidopsis thaliana, UniProt P17597, A205V/E575Q); test: biochemical; details: negative logarithm of the molar concentration inhibiting the enzyme activity by 50%, crude extract of E. coli expressing A. thaliana A205V ALS, 75 min, 30° C.; for IC50: read-out: ALS PI50 A205V (converted)
T1 construct: vector-encoded fusion of pET-32a(+) (Trx/His/S-tag by own knowledge of the vector); made in house; host or cells: Escherichia coli AD494
Description: (§4) Bacteria were grown at 37° C. in LB-medium containing 100 mg/l carbenicillin and 25 mg/l canamycin, induced with 1 mM isopropyl-β-D-thiogalactopyranoside at an OD600 of 0.6, cultivated for 16 hours at 18° C. and harvested by centrifugation. Bacterial pellets were resuspended in 100 mM sodium phosphate buffer pH 7.0 containing 0.1 mM thiamine-pyrophosphate, 1 mM MgCl2, and 1 μM FAD at a concentration of 1 gram wet weight per 25 ml of buffer and disrupted by sonification. The crude protein extract obtained after centrifugation was used for ALS activity measurements.
(§5) Assays were initiated by adding enzyme and terminated after 75 min incubation at 30° C. by the addition of 40 μl 0.5 M H2SO4.

[3] = biological target: T2, A. thaliana S653N-mutant ALS (Arabidopsis thaliana, UniProt P17597, E575Q/S653N); test: biochemical; details: negative logarithm of the molar concentration inhibiting the enzyme activity by 50%, crude extract of E. coli expressing A. thaliana S653N ALS, 75 min, 30° C.; for IC50: read-out: ALS PI50 S653N (converted)
T2 construct: vector-encoded fusion of pET-32a(+) (Trx/His/S-tag by own knowledge of the vector); made in house; host or cells: Escherichia coli AD494
Description: as §4, §5

[4] = biological target: T3, A. thaliana wild-type ALS (Arabidopsis thaliana, UniProt P17597, E575Q); test: biochemical; details: negative logarithm of the molar concentration inhibiting the enzyme activity by 50%, crude extract of E. coli expressing A. thaliana wild-type ALS, 75 min, 30° C.; for IC50: read-out: ALS PI50 WT (converted)
T3 construct: vector-encoded fusion of pET-32a(+) (Trx/His/S-tag by own knowledge of the vector); made in house; host or cells: Escherichia coli AD494
Description: as §4, §5

[5] = biological target: T4, A. thaliana W574L-mutant ALS (Arabidopsis thaliana, UniProt P17597, E575Q/W574L); type: biochemical; details: negative logarithm of the molar concentration inhibiting the enzyme activity by 50%; crude extract of E. coli expressing A. thaliana W574L ALS; 75 min, 30° C.
T4 construct: vector-encoded fusion of pET-32a(+) (Trx/His/S-tag by own knowledge of the vector); made in house; host or cells: Escherichia coli AD494
Description: as §4, §5

T2 sequence (P17597 56-670 E575Q/S653N): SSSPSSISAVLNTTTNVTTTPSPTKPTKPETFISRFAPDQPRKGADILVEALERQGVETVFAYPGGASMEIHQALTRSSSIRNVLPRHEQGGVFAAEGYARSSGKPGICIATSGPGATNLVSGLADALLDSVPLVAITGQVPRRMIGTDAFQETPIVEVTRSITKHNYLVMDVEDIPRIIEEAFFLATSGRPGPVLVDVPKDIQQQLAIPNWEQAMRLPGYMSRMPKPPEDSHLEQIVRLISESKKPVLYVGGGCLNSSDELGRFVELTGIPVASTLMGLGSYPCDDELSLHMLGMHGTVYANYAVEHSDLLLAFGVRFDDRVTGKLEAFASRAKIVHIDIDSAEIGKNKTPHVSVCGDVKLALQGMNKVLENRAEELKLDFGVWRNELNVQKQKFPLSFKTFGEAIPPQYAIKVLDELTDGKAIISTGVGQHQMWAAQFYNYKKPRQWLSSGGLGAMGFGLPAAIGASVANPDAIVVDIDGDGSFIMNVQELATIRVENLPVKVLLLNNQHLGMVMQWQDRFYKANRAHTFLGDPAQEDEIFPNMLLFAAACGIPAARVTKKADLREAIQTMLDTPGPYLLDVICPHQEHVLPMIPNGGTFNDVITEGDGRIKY
T3 sequence (P17597 56-670 E575Q): as the sequence (P17597 56-670 E575Q/S653N) above, with N598S counted along it
T1 sequence (P17597 56-670 A205V/E575Q): as the sequence (P17597 56-670 E575Q/S653N) above, with A150V, N598S counted along it
T4 sequence (P17597 56-670 W574L/E575Q): as the sequence (P17597 56-670 E575Q/S653N) above, with W519L, N598S counted along it

Row | SMILES | IC50 [2] | IC50 [3] | IC50 [4] | other results
1 | COC(=O)c1ccccc1S(=O)(=O)NC(=O)N(C)c1nc(C)nc(OC)n1 |  |  |  | Herbicide injury on BRSNS [%] SR002201 ([1]; 30 g a.i./ha): 95%; Herbicide injury on BRSNS [%] FM 202 (B. napus mutant FM 202; 30 g a.i./ha): 3%
2 | COc1cc(OC)nc(NC(=O)NS(=O)(=O)N(C)S(C)(=O)=O)n1 [Amidosulfuron, amidosulfuron] | 12600 nM | 1.26 nM |  | 
3 | COc1cc(OC)nc(Oc2cccc(Oc3nc(OC)cc(OC)n3)c2C(=O)O)n1 [Bispyribac-sodium, bispyribac-sodium] | 100 nM | 158 nM | 15.8 nM | 
4 | COc1nc(C)nc(NC(=O)NS(=O)(=O)c2ccccc2Cl)n1 [Chlorsulfuron, chlorsulfuron] |  |  |  | Herbicide injury on BRSNS [%] SR002201 ([1]; 9 g a.i./ha): 97%; Herbicide injury on BRSNS [%] FM 202 (B. napus mutant FM 202; 9 g a.i./ha): 0%
5 | CCOc1ccccc1OS(=O)(=O)NC(=O)Nc1nc(OC)cc(OC)n1 [Ethoxysulfuron, ethoxysulfuron] |  |  |  | Herbicide injury on BRSNS [%] SR002201 ([1]; 60 g a.i./ha): 98%; Herbicide injury on BRSNS [%] FM 202 (B. napus mutant FM 202; 60 g a.i./ha): 0%
6 | COc1cc(OC)nc(NC(=O)NS(=O)(=O)c2ncccc2C(F)(F)F)n1 [Flazasulfuron, flazasulfuron] | 15.8 nM |  | 2.51 nM | 
7 | COc1ncc(F)c2nc(S(=O)(=O)Nc3c(F)cccc3F)nn12 [Florasulam, florasulam] |  |  |  | ALS PI50 A205V [2]: 6.1; ALS PI50 WT [4]: 7.9; ALS PI50 S653N [3]: 7.6; ALS PI50 W574L [5]: 4.6
8 | COc1cc(OC)nc(NC(=O)NS(=O)(=O)c2cc(NC=O)ccc2C(=O)N(C)C)n1 [Foramsulfuron, foramsulfuron] | 501 nM |  |  | 
9 | COCc1cnc(C2=NC(C)(C(C)C)C(=O)N2)c(C(=O)O)c1 (stereo not shown) [Imazamox, imazamox] | > 100000 nM |  |  | Herbicide injury on BRSNS [%] SR002201 ([1]; 40 g a.i./ha): 93%; Herbicide injury on BRSNS [%] FM 202 (B. napus mutant FM 202; 40 g a.i./ha): 0%
10 | COC(=O)c1ccc(I)cc1S(=O)(=O)[N-]C(=O)Nc1nc(C)nc(OC)n1.[Na+] [Iodosulfuron-methy-sodium, iodosulfuron-methyl-sodium] |  |  |  | Herbicide injury on BRSNS [%] SR002201 ([1]; 7 g a.i./ha): 95%; Herbicide injury on BRSNS [%] FM 202 (B. napus mutant FM 202; 7 g a.i./ha): 0%
11 | COC(=O)c1ccc(CNS(C)(=O)=O)cc1S(=O)(=O)NC(=O)Nc1nc(OC)cc(OC)n1 [Mesosulfuron-methyl, mesosulfuron-methyl] |  |  |  | Herbicide injury on BRSNS [%] SR002201 ([1]; 15 g a.i./ha): 90%; Herbicide injury on BRSNS [%] FM 202 (B. napus mutant FM 202; 15 g a.i./ha): 0%
12 | COc1cc(OC)n2nc(S(=O)(=O)Nc3c(Cl)ccc(C)c3Cl)nc2n1 [Metosulam, metosulam] | 794 nM | 39.8 nM | 3.16 nM | 
13 | COC(=O)c1ccccc1S(=O)(=O)NC(=O)Nc1nc(C)nc(OC)n1 [Metsulfuron-methyl, metsulfuron-methyl] |  |  |  | Herbicide injury on BRSNS [%] SR002201 ([1]; 8 g a.i./ha): 93%; Herbicide injury on BRSNS [%] FM 202 (B. napus mutant FM 202; 8 g a.i./ha): 0%
14 | COc1cc(OC)nc(NC(=O)NS(=O)(=O)c2ncccc2C(=O)N(C)C)n1 [Nicosulfuron, nicosulfuron] | 1000 nM | 1580 nM | 63.1 nM | 
15 | CCS(=O)(=O)c1cccnc1S(=O)(=O)NC(=O)Nc1nc(OC)cc(OC)n1 [Rimsulfuron, rimsulfuron] | 158 nM | 2.51 nM | 10 nM | 
16 | CCS(=O)(=O)c1nc2ccccn2c1S(=O)(=O)NC(=O)Nc1nc(OC)cc(OC)n1 [Sulfosulfuron, sulfosulfuron] | 1260 nM | 79.4 nM | 15.8 nM | 
17 | COC(=O)c1csc(C)c1S(=O)(=O)NC(=O)n1nc(OC)n(C)c1=O [Thiencarbazone-methyl, thiencarbazone-methyl] |  |  |  | Herbicide injury on BRSNS [%] SR002201 ([1]; 20 g a.i./ha): 90%; Herbicide injury on BRSNS [%] FM 202 (B. napus mutant FM 202; 20 g a.i./ha): 0%
18 | COC(=O)c1sccc1S(=O)(=O)NC(=O)Nc1nc(C)nc(OC)n1 [Thifensulfuron-Methyl, thifensulfuron-methyl] | 631 nM | 158 nM | 31.6 nM | 
19 | COC(=O)c1cccc(C)c1S(=O)(=O)NC(=O)Nc1nc(OCC(F)(F)F)nc(N(C)C)n1 [Triflusulfuron, triflusulfuron-methyl] |  |  |  | Herbicide injury on BRSNS [%] SR002201 ([1]; 20 g a.i./ha): 65%; Herbicide injury on BRSNS [%] FM 202 (B. napus mutant FM 202; 20 g a.i./ha): 0%
